SMILES strings stand for the structures.

For test [1], the target named is T1, Peptidase M28 domain-containing protein (Prevotella nigrescens CC14M, UniProt V8CNC2).
T1 sequence (V8CNC2 whole entry): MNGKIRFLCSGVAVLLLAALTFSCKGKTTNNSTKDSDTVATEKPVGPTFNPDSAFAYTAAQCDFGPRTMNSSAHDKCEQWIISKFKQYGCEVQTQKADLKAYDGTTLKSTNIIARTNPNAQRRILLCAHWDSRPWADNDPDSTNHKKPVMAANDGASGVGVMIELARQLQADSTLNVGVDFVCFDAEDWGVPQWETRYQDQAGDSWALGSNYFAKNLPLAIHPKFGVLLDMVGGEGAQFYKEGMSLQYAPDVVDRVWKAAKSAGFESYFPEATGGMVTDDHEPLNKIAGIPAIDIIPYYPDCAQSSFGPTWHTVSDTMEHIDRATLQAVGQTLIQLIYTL

The target in a further test is T2, Peptidase, M28 family (Tannerella forsythia (strain ATCC 43037 / JCM 10827 / CCUG 21028 A / KCTC 5666 / FDC 338), UniProt G8UMP8).
T2 sequence (G8UMP8 whole entry): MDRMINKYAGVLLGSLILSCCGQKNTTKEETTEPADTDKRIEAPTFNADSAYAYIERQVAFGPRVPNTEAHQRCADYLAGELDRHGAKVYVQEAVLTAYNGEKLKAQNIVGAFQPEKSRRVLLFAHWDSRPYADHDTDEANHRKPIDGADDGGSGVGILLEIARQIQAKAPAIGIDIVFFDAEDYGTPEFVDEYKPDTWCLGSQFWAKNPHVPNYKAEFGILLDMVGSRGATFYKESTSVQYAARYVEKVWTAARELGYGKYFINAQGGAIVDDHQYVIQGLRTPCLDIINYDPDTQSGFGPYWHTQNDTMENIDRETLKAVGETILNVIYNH

In test [2] the target is Glutaminyl-peptide cyclotransferase (Homo sapiens, UniProt Q16769).
Glutaminyl-peptide cyclotransferase, sequence (Q16769 whole entry): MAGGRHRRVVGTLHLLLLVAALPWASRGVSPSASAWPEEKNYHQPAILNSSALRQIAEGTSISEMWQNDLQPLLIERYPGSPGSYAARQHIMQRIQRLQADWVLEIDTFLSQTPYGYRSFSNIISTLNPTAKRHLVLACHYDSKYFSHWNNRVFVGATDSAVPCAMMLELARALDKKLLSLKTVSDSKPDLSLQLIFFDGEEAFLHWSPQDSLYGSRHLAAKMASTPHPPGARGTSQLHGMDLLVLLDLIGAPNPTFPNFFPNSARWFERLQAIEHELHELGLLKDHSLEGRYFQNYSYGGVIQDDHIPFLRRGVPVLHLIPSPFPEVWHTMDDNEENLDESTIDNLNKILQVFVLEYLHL
The target of test [3] is T3, Glutamine cyclotransferase-related protein (Porphyromonas gingivalis (strain ATCC BAA-308 / W83), UniProt Q7MT37).
T3 sequence (Q7MT37 whole entry): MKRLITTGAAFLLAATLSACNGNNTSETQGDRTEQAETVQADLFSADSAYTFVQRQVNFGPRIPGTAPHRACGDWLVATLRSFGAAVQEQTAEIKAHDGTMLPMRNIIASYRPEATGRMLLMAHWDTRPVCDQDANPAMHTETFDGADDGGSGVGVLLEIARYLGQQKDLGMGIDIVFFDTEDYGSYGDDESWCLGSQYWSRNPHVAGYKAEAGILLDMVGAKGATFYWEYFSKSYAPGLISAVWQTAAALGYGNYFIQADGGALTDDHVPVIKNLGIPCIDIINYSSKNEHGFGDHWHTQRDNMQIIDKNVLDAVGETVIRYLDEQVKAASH
Description: Inhibition of Glutaminyl Cyclases. How it is done:
For inhibitor testing, the sample composition was the same as described above, except for the addition of the putative inhibitory compound. […] Inhibitory constants were determined using different concentration of H-Gln-AMC varying from Km-2 Km. Final concentration of bacterial QC was in a range between 25 nM-50 nM.

For `c1ccc(CNc2ccc3nc[nH]c3n2)cc1` [US11958871, Example 1], the affinity in test [1] corresponds to a Ki of 9400 nM. This counts as single-digit micromolar.

`c1ccc(CNc2cnc3[nH]cnc3c2)cc1` [US11958871, Example 2]: the inhibition constant Ki (commonly a dissociation constant, usually derived from enzyme kinetics or from competition with a known ligand) at Peptidase, M28 family turned out to be 1400 nM; in test [2], 1280 nM; in test [3] it was 149 nM.

`Fc1cc(CNc2cnc3[nH]cnc3c2)cc(F)c1F` [US11958871, Example 3]: the Ki in test [3] is 157 nM. That is a sub-micromolar value. `Clc1cccc(CNc2cnc3[nH]cnc3c2)c1` [US11958871, Example 5]: the Ki was determined as 769 nM in test [2] and 106 nM in test [3].

Take `COc1cccc(CNc2cnc3[nH]cnc3c2)c1` [US11958871, Example 6]: the Ki was 599 nM in test [2] and 77 nM in test [3]. Consider `COc1ccc(CNc2cnc3[nH]cnc3c2)cc1` [US11958871, Example 7], for which the Ki in test [3] was determined as 83 nM.

Consider `c1nc2cc(NCc3ccsc3)cnc2[nH]1` [US11958871, Example 8], for which the Ki in test [2] was found to be 1870 nM; in test [3], 185 nM. For `c1cc(CNc2cnc3[nH]cnc3c2)cc(N2CCCCC2)c1` [US11958871, Example 9], the affinity in test [3], expressed as Ki, was 442 nM.

On to `c1ccc(CNc2cnc3[nH]cnc3c2)nc1` [US11958871, Example 10], for which the Ki in test [3] stood at 395 nM. On the same count and under the same terms, the value for `c1cncc(CNc2cnc3[nH]cnc3c2)c1` [US11958871, Example 11] was 139 nM. As for `c1nc2cc(NCc3ccc4c(c3)OCCO4)cnc2[nH]1` [US11958871, Example 12], the Ki at Peptidase, M28 family was determined as 680 nM; in test [2] it was 543 nM; in test [3], 44 nM; in test [1] it was 728 nM. `COc1ccc(CNc2cnc3[nH]cnc3c2)cc1OC` [US11958871, Example 13]: the values for the Ki in test [2] and in test [3] were 556 nM and 133 nM, respectively. For the compound `Clc1ccc(CNc2cnc3[nH]cnc3c2)cc1Cl` [US11958871, Example 14], the Ki at Peptidase, M28 family was determined as 358 nM; in test [2], 431 nM; in test [3] it was 53 nM. `CCCOc1ccc(CNc2cnc3[nH]cnc3c2)cc1` [US11958871, Example 15] registered a Ki in test [3] of 34 nM. Take `NCCOc1ccc(CNc2cnc3[nH]cnc3c2)cc1` [US11958871, Example 16]: the Ki on Peptidase, M28 family is 317 nM; in test [2], 1070 nM; in test [3] it was 30 nM.

Source of the values: BindingDB's records for patent US11958871 (Fraunhofer-Gesellschaft Zur Forderung Der Angewandten …, 2024).
